Molecular target: T1, human recombinant OX2 (hOX2) receptors expressed in CHO cells (Homo sapiens, UniProt O43614)
T1 construct: host or cells: CHO cells (hOX2-CHO)
T1 sequence (O43614 1-444): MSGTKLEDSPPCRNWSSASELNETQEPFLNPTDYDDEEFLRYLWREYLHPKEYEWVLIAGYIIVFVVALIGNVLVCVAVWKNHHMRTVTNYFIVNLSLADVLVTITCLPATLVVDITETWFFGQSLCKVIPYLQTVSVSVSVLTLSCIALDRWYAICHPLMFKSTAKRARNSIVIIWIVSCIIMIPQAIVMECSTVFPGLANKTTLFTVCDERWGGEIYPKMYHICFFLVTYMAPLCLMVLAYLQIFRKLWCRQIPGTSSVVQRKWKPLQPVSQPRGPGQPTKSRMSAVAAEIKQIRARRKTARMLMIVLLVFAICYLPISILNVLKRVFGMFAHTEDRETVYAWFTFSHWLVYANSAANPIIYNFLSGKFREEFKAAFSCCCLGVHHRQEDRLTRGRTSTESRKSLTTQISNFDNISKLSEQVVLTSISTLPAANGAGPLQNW
Assay: IP-1 accumulation assay (IP-One HTRF) in hOX2-CHO cells
Format: cell-based
Conditions: 60 min incubation at 37° C., mean of at least two independent experiments, read-out: EC50_OX2R Category
Method: The accumulation of Inositol-1 Monophosphate (IP-1) was measured using IP-One HTRF® Terbium cryptate based assay (Cisbio) in human recombinant OX1 (hOX1) and at OX2 (hOX2) receptors expressed in CHO cells (DiscoverX) according to the manufacturer's instructions for cells tested in suspension.
hOX1-CHO and hOX2-CHO cells were seeded into white 384-well plates at a density of 20,000 cells/well in Hank's Balanced Salt Solution (HBSS) containing 20 mM HEPES pH 7.4, 50 mM, LiCl and 0.1% and Bovine Serum Albumin (BSA).
Compounds of disclosure were tested in an 11 points concentration response curve (CRC) serially diluted in neat DMSO at 200 fold concentrations and added by Echo acoustic liquid handling (Labcyte) to the cells (0.5% DMSO final in the assay). After 60 min of incubation at 37° C. detection reagents, IP1-d2 tracer and anti-IP1-cryptate were diluted in lysis buffer according to the manufacturer's descriptions and added to the cells.
Following 60 min incubation at room temperature, time-resolved fluorescence (HTRF) was measured at 615 nm and 665 nm by Envision Multilabel reader (Perkin Elmer) and the HTRF ratio (A665/A615×10^4) was calculated.
The IP-1 accumulation response was expressed as percentage of the maximal OX-A response.
Curve fitting and EC50 estimations were carried out using a four-parameter logistic model using XLfit Software. Mean data of EC50 are calculated from at least two independent experiments performed in duplicates

Row | SMILES | EC50 [nM]
1 | O=C1COCC2(CCN3C(=O)CCCOc4ccccc4[C@H]4CC[C@H](CC4)OCC32)N1 (mixture of isomers) [Example 2, rel-(1′s,3S, 17′R,20′s)-8′,19′-dioxa-13′-azaspiro[morpholine-3, 16′-tetracyclo [18.2.2.0^2,70.0^13,17]tetracosane]-2′(7′),3′,5′-triene-5,12′-dione] | 1000 to 10000
2 | O=C1COCC2(CCN3C(=O)COc4ccccc4[C@H]4CC[C@H](CC4)OCC32)N1 (mixture of isomers) [Example 3, rel-(1′s,3S, 15′R,18′s)-8′,17′-dioxa-11′-azaspiro[morpholine-3,14′-tetracyclo[16.2.2.0^2,70.0^11,15]docosane]-2′(7′),3′,5′-triene-5,10′-dione] | 1000 to 10000
3 | O=C1COCC2(CCN3C(=O)CCOc4cccc(F)c4[C@H]4CC[C@H](CC4)OCC32)N1 (mixture of isomers) [Example 10, Rel-(1′s,3S,16′R,19′s)-3′-fluoro-8′,18′-dioxa-12′-azaspiro[morpholine-3,15′-tetracyclo[17.2.2.0^2,70.0^12,16]tricosane]-2′(7′),3′,5′-triene-5,11′-dione] | < 100
4 | O=C1COCC2(CCN3C(=O)CCOc4c(F)cc(F)cc4[C@H]4CC[C@H](CC4)OCC32)N1 (mixture of isomers) [Example 11, Rel-(1′s,3S,16′R,19′s)-4′,6′-difluoro-8′,18′-dioxa-12′-azaspiro[morpholine-3,15′-tetracyclo[17.2.2.0^2,70.0^12,16]tricosane]-2′(7′),3′,5′-triene-5,11′-dione] | 100 to 1000
5 | C[C@@H]1CC2(COCC(=O)N2)C2CO[C@H]3CC[C@H](CC3)c3ccccc3OCCCC(=O)N21 (mixture of isomers) [Example 14, (1′s,14′R,20's)-14′-methyl-8′,19′-dioxa-13′-azaspiro[morpholine-3,16′-tetracyclo[18.2.2.0^2,70.0^13,17]tetracosane]-2′(7′),3′,5′-triene-5,12′-dione] | < 100
6 | C[C@@H]1CC2(COCC(=O)N2)C2Cc3cccc(c3F)-c3ccccc3CCCCC(=O)N21 (mixture of isomers) [Example 29, (14′R)-23′-fluoro-14′-methyl-13′-azaspiro[morpholine-3,16′tetracyclo-[17.3.1.0^2,70.0^13,17]tricosane]-1′(23′),2′(7′),3′,5′,19′,21′-hexaene-5,12′-dione] | > 10000
7 | C[C@@H]1CC2(COCC(=O)N2)C2Cc3cccc(c3F)-c3ccccc3OCCN(C)C(=O)N21 (mixture of isomers) [Example 30, (14′R)-23′-fluoro-11′,14′-dimethyl-8′-oxa-11′,13′-diazaspiro[morpholine-3,16′-tetracyclo[17.3.1.0^2,70.0^13,17]tricosane]-1′(23′),2′(7′),3′,5′,19′,21′-hexaene-5,12′-dione] | 1000 to 10000
8 | C[C@@H]1CC2(COCC(=O)N2)C2Cc3cccc(c3F)-c3ccccc3OCCCN(C)C(=O)N21 (mixture of isomers) [Example 31, (15′R)-24′-fluoro-12′, 15′-dimethyl-8′-oxa-12′, 14′-diazaspiro[morpholine-3,17′-tetracyclo[18.3.1.0^2,70.0^14,18]tetracosane]-1′(24′),2′(7′),3′,5′,20′,22′-hexaene-5,13′-dione] | > 10000
9 | O=C1COCC2(CCCN3C(=O)CCOc4ccc(F)cc4[C@H]4CC[C@H](CC4)OCC32)N1 (mixture of isomers) [Example 49, Rel-(1′s,3S,17′R,20′s)-4′-fluoro-8′,19′-dioxa-12′-azaspiro[morpholine-3,16′-tetracyclo[18.2.2. 0^2,^7.0^12,^17]tetracosane]-2′(7′),3′,5′-triene-5,11′-dione] | < 100
10 | O=C1COCC2(CCCN3C(=O)OCCOc4cccc(c4)[C@H]4CC[C@H](CC4)OCC32)N1 (mixture of isomers) [Example 53, Rel-(1′s,3S,17′R,20's)-7′,10′,19′-trioxa-12′-azaspiro[morpholine-3,16′-tetracyclo[18.2.2.1^2,60.0^12,17]pentacosane]-2′(25′),3′,5′-triene-5,11′-dione] | < 100
11 | O=C1NC2(CCCN3C(=O)COc4ccccc4[C@H]4CC[C@H](CC4)OCC32)CCO1 (mixture of isomers) [Example 57, Rel-(1′s,4R,16′R,19′s)-8′,18′-dioxa-11′-azaspiro[1,3-oxazinane-4,15′-tetracyclo[17.2.2.0^2,70.0^11,16]tricosane]-2′(7′),3′,5′-triene-2,10′-dione] | < 100
12 | O=C1COc2ccccc2[C@H]2CC[C@H](CC2)OCC2N1CCCC21CCCS(=O)(=O)N1 (mixture of isomers) [Example 59, Rel-(1s, 15R,16R,19s)-8,18-dioxa-11-azaspiro[tetracyclo[17.2.2.0^2,70.0^11,16]tricosane-15,3′-[1λ^6,2]thiazinane]-2 (7),3,5-triene-1′,1′,10-trione] | < 100

Further lines, results first:

Row | EC50 [nM] | SMILES
13 | < 100 | O=C1COCC2(CCN3C(=O)CCOc4ccccc4[C@H]4CC[C@H](CC4)OCC32)N1 (mixture of isomers) [Example 1, rel-(1's,3S,16′R,19′s)-8′,18′-dioxa-12′-azaspiro[morpholine-3,15′-tetracyclo[17.2.2.0^2,70.0^12,16]tricosane]-2′(7′),3′,5′-triene-5,11′-dione]
14 | 1000 to 10000 | O=C1COCC2(CCN3C(=O)C4(CC4)COc4ccccc4[C@H]4CC[C@H](CC4)OCC32)N1 (mixture of isomers) [Example 7, Rel-(1′s, 15'S,16′R,19′s)-dispiro[cyclopropane-1,10′-[8,18]dioxa-[12]azatetracyclo[17.2.2.0^2,70.0^12,16]tricosane-15′,3″-morpholine]-2′(7′),3′,5′-triene-5″,11′-dione]
15 | > 10000 | O=C1CCOc2ccccc2[C@H]2CC[C@H](CC2)OCC2N1CCC21COCCN1 (mixture of isomers) [Example 9, Rel-(1′s,3S,16′R,19′s)-8′,18′-dioxa-12′-azaspiro[morpholine-3,15′-tetracyclo[17.2.2.0^2,70.0^12,16]tricosane]-2′,4′,6′-trien-11′-one]
16 | 1000 to 10000 | C[C@@H]1CC2(COCC(=O)N2)C2Cc3cccc(c3F)-c3ccccc3CCCC(=O)N21 (mixture of isomers) [Example 28]
17 | > 10000 | O=C1COCC2(CCCN3C(=O)CCOc4cccnc4[C@H]4CC[C@H](CC4)OCC32)N1 (mixture of isomers) [Example 51, Rel-(1′s,3S,17′R,20′s)-8′,19′-dioxa-3′,12′-diazaspiro [morpholine-3,16′-tetracyclo[18.2.2. 0^2,^7.0^12,^17]tetracosane]-2′(7′),3′,5′-triene-5,11′-dione]
18 | 1000 to 10000 | O=C1COCC2(CCCN3C(=O)OCCc4ccccc4[C@H]4CC[C@H](CC4)OCC32)N1 (mixture of isomers) [Example 52, Rel-(1′s,3S,17′R,20's)-10′,19′-dioxa-12′-azaspiro[morpholine-3,16′-tetracyclo [18.2.2.0^2,70.0^12,17]tetracosane]-2′(7′), 3′,5′-triene-5,11′-dione]
19 | < 100 | O=C1COCC2(CCCN3C(=O)OCCCOc4cccc(c4)[C@H]4CC[C@H](CC4)OCC32)N1 (mixture of isomers) [Example 54, Rel-(1′s,3S,18′R,21′s)-7′,11′,20′-trioxa-13′-azaspiro[morpholine-3,17′-tetracyclo[19.2.2.1^2,60.0^13,18]hexacosane]-2′(26′),3′,5′-triene-5,12′-dione]
20 | < 100 | O=C1CCCC2(CCCN3C(=O)COc4ccccc4[C@H]4CC[C@H](CC4)OCC32)N1 (mixture of isomers) [Example 58, Rel-(1′s,2S,16′R,19′s)-8′,18′-dioxa-11′-azaspiro[piperidine-2,15′-tetracyclo-[17.2.2.0^2,70.0^11,16]tricosane]-2′(7′),3′,5′-triene-6,10′-dione]

Source: patent US20250320227A1, “MACROCYCLIC OREXIN RECEPTOR AGONISTS AND USES THEREOF” (Jazz Pharmaceuticals Ireland Limited, priority 2022, published 2025)
